From a melting point compilation (Tetko et al.; mined from patent text by program, amines drawn as free bases though some values may be those of a salt)

For `Nc1cccc(-c2ccc(CCN3CCN(C4CCc5ccccc5C4)CC3)cc2)n1` (centres undefined), the melting point was > 220 °C. `CCC(C)C(OCc1ccccc1)C1C(C(=O)NCC(=O)O)NC(C2CCCCC2)C1[N+](=O)[O-]` (centres undefined) gave a melting point of 177 to 179 °C. Work on `COCCOC(=O)c1c(F)cccc1S(=O)(=O)NC(=O)Nc1nc(OC)nc(OC)n1` yielded a melting point of 179 to 182 °C. `COc1cc(OCc2nccs2)ccc1/C=C/c1cc(/C=C/c2ccc3cc[nH]c3c2)n[nH]1` gave a melting point of 229 to 237 °C. Work on `Nc1ccc(NCCc2ccccc2)cc1` yielded a melting point of 247 °C. In the case of `N#Cc1c(O)csc1N1CCOCC1`, the melting point is reported as 191 °C. Molecule `O=C(O)CN1C(=O)C(=Cc2ccc(OCc3ccc(C(F)(F)F)cc3)c(OCc3ccccc3)c2)SC1=S` has a melting point of 257 to 263 °C. For `Cc1noc(NS(=O)(=O)c2ccc(-c3ccc4c(c3)OCO4)cc2)c1Br`, the melting point was 172 to 174 °C. With `Cc1cccc(-c2oc3c(C(=O)NCCCN4CCCCC4)cccc3c(=O)c2C)c1` the melting point was 112 to 114 °C. Molecule `CCOC(=O)c1ccc(OCCCCCCCCCCCCCCCOc2ccc(Cl)cc2)cc1` has a melting point of 84 to 85 °C. Molecule `COC(=O)COc1cccc(C=Cc2nc(-c3ccccc3)c(-c3ccccc3)o2)c1` has a melting point of 79 to 82 °C. Molecule `O=C(NC1CCN(C(=O)OCCC2(C(=O)NCC(F)(F)F)c3ccccc3-c3ccccc32)CC1)c1ccccc1Oc1ccccc1` has a melting point of 68 to 73 °C. `O=C1SC[C@@H](CO)N1Cc1ccccc1` showed a melting point of 87 to 90 °C. For `CC(C)(C)c1ccc(C=NOCCCOc2ccc(CC(=O)O)cc2)cc1`, the melting point was 56.2 to 59.2 °C. Molecule `CC(=O)NCC1CCC(C(=O)N2CC2C#N)CC1` (centres undefined) has a melting point of 92 to 94 °C. Work on `COc1cc2c(cc1OC)C1=NCCN1C(/C=C(\O)c1cccnc1)=N2` yielded a melting point of 275 °C. Molecule `Cn1c(=O)c(-c2ccc(Cl)cc2Cl)cc2c3cc(-c4coc(N)n4)ccc3n(C)c21` has a melting point of 295 to 297 °C. `COc1ccc(COc2cccc(C(=O)Nc3ccc(S(C)(=O)=O)cc3)c2)cc1` gave a melting point of 173 to 174 °C. For `O=C1CCCN1CCc1c2ccccc2n2c1[nH]c(=O)c1ccccc12`, the melting point was 154 to 155 °C. For `CCOC(=O)c1cn2c3c(cc(CN4CCOCC4)cc3c1=O)OC(c1ccccc1)C2` (centres undefined), the melting point was 213 to 215 °C. For `C[C@@H](CCOC(N)=O)CN1CCC(c2noc3cc(F)ccc23)CC1`, the melting point was 72 to 74 °C. `C=C(CC(=O)Nc1cccc(/C=C/c2nc(C3CCCCC3)cs2)c1)C(=O)O` gave a melting point of 187 to 189 °C. `CC(C)C1CC(=O)C(=C2CCCN2)C(=O)C1` (centres undefined) gave a melting point of 143 to 145 °C. `Cc1cc(-c2ccc(Cl)cc2)nc2c(-c3nc(-c4cccc(S(N)(=O)=O)c4)no3)cnn12` showed a melting point of 275 °C. For `Oc1c2c(nn1-c1nc3ccccc3s1)CCc1ccccc1-2`, the melting point was 234 to 235 °C. In the case of `O=c1c2c(N3CCNCC3)cc(Cl)cc2n(Cc2ccccc2)c(=O)n1Cc1ccccc1Cl`, the melting point is reported as 120 to 125 °C. With `CCOC(=O)C1=C(C)NC(C(OCC)OCC)=C(C(=O)OCC)C1c1ccccc1OC` (centres undefined) the melting point was 105 to 107 °C. Molecule `Cc1cc2c(N3CCC(CCO)CC3)ccc(C#N)c2o1` has a melting point of 106 to 107 °C. Molecule `CN1CCN(c2cccc3nc4n(c(=O)c23)-c2ccc(F)cc2C4=O)CC1` has a melting point of 232 to 233 °C. Molecule `CCOC(=O)c1cnn2c(-c3cccc(N(CC)C(=O)OC)c3)ccnc12` has a melting point of 117 °C. Work on `O=[N+]([O-])c1ccccc1N1CCN(c2ccccc2)CCN1` yielded a melting point of 119 to 121 °C. For `COc1ccc(C(NC(=O)C(C)c2ccccc2)c2cccc(Nc3c(N)c(=O)c3=O)c2)cc1` (centres undefined), the melting point was 206 to 209 °C. In the case of `COCCNCCC(=O)Nc1nc(-c2ccccc2)c(-c2ccc(=O)n(C(C)C)n2)s1`, the melting point is reported as 167 to 168 °C. `OCC1OC(n2cnc3c(Nc4ccc(Cl)cc4)ccnc32)C(O)C1O` (centres undefined) gave a melting point of 215 °C. In the case of `Oc1ccc(Cc2ccccc2)c2c1NCCC2`, the melting point is reported as 135 to 136 °C. `CC(=O)NC1(c2ccccc2)CCN(CCC(CN(CCc2ccccc2)CCc2ccccc2)c2ccc(Cl)c(Cl)c2)CC1` (centres undefined) gave a melting point of 60 to 62 °C. `CCOC(=O)C(Cl)=Cc1cc(-n2ncc(C(F)(F)F)cc2=O)ccc1Cl` gave a melting point of 98 to 100 °C. Molecule `CCCCOC(=O)CCC(C)(c1ccc(O)c(C(C)(C)C)c1)c1ccc(O)c(C(C)(C)C)c1` has a melting point of 123 °C. `CCc1cc(OCc2ccc(C(=O)NS(=O)(=O)c3ccccc3C)cc2)c(C(=O)OC)c(CC)n1` showed a melting point of 175 to 176 °C. In the case of `COc1cc2cc(-c3c(F)cccc3F)sc2c(Cl)c1Cl`, the melting point is reported as 173 to 174 °C. With `CCCCCC(=O)OCC(CO)CCn1cnc2c(=O)[nH]c(N)nc21` (centres undefined) the melting point was 179 to 181 °C. With `CCS(=O)(=O)c1ccc(-c2cnn(-c3cccc(Cl)c3)c(=O)c2C2CCCCC2)cc1` the melting point was 85 to 90 °C. `CCOC(=O)C1C=Nc2c(cccc2[N+](=O)[O-])C1=O` (centres undefined) gave a melting point of 241 to 243 °C. In the case of `C=CCn1nc(-c2ccc(O)cc2O)c2cccc(C(F)(F)F)c21`, the melting point is reported as 114 to 115 °C. With `O=Cc1c2ccc3ccccc3c2cc2ccsc12` the melting point was 199 to 200 °C. In the case of `CC1CCC(=O)CC1S(=O)(=O)c1ccccc1` (centres undefined), the melting point is reported as 71 to 74 °C. With `CC(C)(CCC#N)c1ccc(C(=O)Nc2cn3cc(-n4ccnc4)ccc3n2)cc1` the melting point was 233 to 234 °C. For `Cc1ccc(Sc2cncc3sc(C(=O)O)cc23)cc1`, the melting point was 272 to 274 °C. Molecule `Cn1cnnc1COc1nn2c(-c3ccccc3)nnc2cc1-c1ccccc1` has a melting point of 230 to 235 °C.
